The assay can be described thus: Measured activity expressed as ID50 (analogue)/ID50 (paclitaxel), where ID50 is the concentration of compound leading to 50% inhibition of the rate microtubule disassembly. It counts as functional.
`COC(=O)[C@@H](C(=O)O[C@H]1C[C@@]2(O)[C@@H](OC(=O)c3ccccc3)[C@H]3[C@](C)(C(=O)[C@H](OC(C)=O)C(=C1C)C2(C)C)[C@@H](O)CC1OC[C@]13OC(C)=O)[C@H](NC(=O)c1ccccc1)c1ccccc1` (some centres not stated) registered an Activity of 30.
In turn, `C/C=C(/C)C(=O)N[C@H](c1ccccc1)[C@@H](O)C(=O)O[C@H]1C[C@@]2(O)[C@@H](OC(=O)c3ccccc3)[C@H]3[C@](C)(C(=O)[C@H](OC(C)=O)C(=C1C)C2(C)C)[C@@H](O)CC1OC[C@]13OC(C)=O` (some centres not stated) showed an Activity of 1.5.
The compound `CC(=O)O[C@@]12COC1C[C@H](O)[C@@]1(C)C(=O)[C@H](O)C3=C(C)[C@@H](OC(=O)[C@H](O)Cc4ccccc4)C[C@@](O)([C@@H](OC(=O)c4ccccc4)[C@@H]12)C3(C)C` (some centres not stated) showed an Activity of 4.5.
In the case of `CC(=O)O[C@H]1C(=O)[C@]2(C)[C@@H](O)CC3OC[C@@]3(OC(C)=O)[C@H]2[C@H](OC(=O)C2CCCCC2)[C@]2(O)C[C@H](OC(=O)[C@H](O)[C@@H](NC(=O)OC(C)(C)C)c3ccccc3)C(C)=C1C2(C)C` (some centres not stated), the Activity turned out to be 0.67.
Compound `CC(=O)O[C@@]12COC1C[C@H](O)[C@@]1(C)C(=O)[C@H](O)C3=C(C)[C@@H](OC(=O)[C@H](O)[C@H](NC(=O)c4cccs4)C(C)(C)C)C[C@@](O)([C@@H](OC(=O)c4ccccc4)[C@@H]12)C3(C)C` (some centres not stated) came in with an Activity of 0.42.
Next, `CC[C@H](NC(=O)OC(C)(C)C)[C@@H](O)C(=O)O[C@H]1C[C@@]2(O)[C@@H](OC(=O)c3ccccc3)[C@H]3[C@@](C)([C@@H](O)CC4OC[C@]43OC(C)=O)[C@@H](O)[C@H](OC(C)=O)C(=C1C)C2(C)C` (some centres not stated): 0.61.
Next, `CC(=O)O[C@@H]1C2=C(C)[C@@H](OC(=O)[C@H](O)[C@@H](NC(=O)OC(C)(C)C)C(O)CO)C[C@@](O)([C@@H](OC(=O)c3ccccc3)[C@H]3[C@@](C)([C@@H](O)CC4OC[C@]43OC(C)=O)[C@H]1O)C2(C)C` (some centres not stated): 2.71.
In the case of `CC(=O)O[C@@]12COC1C[C@H](O)[C@@]1(C)C(=O)[C@H](O)C3=C(C)[C@@H](OC(=O)CCc4ccccc4)C[C@@](O)([C@@H](OC(=O)c4ccccc4)[C@@H]12)C3(C)C` (some centres not stated), the Activity turned out to be 17.
Regarding `CO[C@H]1[C@H](OC(C)=O)C2=C(C)[C@@H](OC(=O)[C@H](O)[C@@H](NC(=O)OC(C)(C)C)c3ccccc3)C[C@@](O)([C@@H](OC(=O)c3ccccc3)[C@H]3[C@@]1(C)[C@@H](O)CC1OC[C@]13OC(C)=O)C2(C)C` (some centres not stated), the Activity was found to be 0.51.
As for `CC(=O)O[C@@]12COC1C[C@H](O)[C@@]1(C)C(=O)[C@H](O)C3=C(C)[C@@H](OC(=O)[C@H](O)[C@@H](NC(=O)OC(C)(C)C)c4ccccc4)[C@H](O)[C@@](O)([C@@H](OC(=O)c4ccccc4)[C@@H]12)C3(C)C` (some centres not stated), the Activity was determined as 0.8.
The compound `CC(=O)O[C@H]1C(=O)[C@]2(C)[C@@H](O)CC3OC[C@@]3(OC(C)=O)[C@H]2[C@H](OC(=O)c2ccccc2)[C@]2(O)C[C@H](OC(=O)[C@H](O)[C@H](N)c3ccccc3)C(C)=C1C2(C)C` (some centres not stated) came in with an Activity of 44.
Consider `CC(=O)N[C@@H](c1ccccc1)[C@@H](O)C(=O)O[C@H]1C[C@@]2(O)[C@@H](OC(=O)c3ccccc3)[C@H]3[C@@](C)([C@@H](O)CC4OC[C@]43OC(C)=O)[C@@H](O)[C@H](OC(C)=O)C(=C1C)C2(C)C` (some centres not stated), for which the Activity stood at 3.17.
In turn, `CC(=O)O[C@H]1C(=O)[C@]2(C)[C@@H](O)CC3OC[C@@]3(OC(C)=O)[C@H]2[C@H](OC(=O)c2ccccc2)[C@]2(O)C[C@H](OC(=O)[C@H](O)[C@H](NC(=O)CC(C)(C)C)c3ccccc3)C(C)=C1C2(C)C` (some centres not stated) came in with an Activity of 0.7.
Turning to `CC(=O)O[C@@]12COC1C[C@H](O)[C@@]1(C)C(=O)[C@H](O)C3=C(C)[C@@H](OC(=O)[C@H](O)[C@H](NC(=O)OC(C)(C)C)c4ccccc4)C[C@@](O)([C@@H](OC(=O)c4ccccc4)[C@@H]12)C3(C)C` (some centres not stated), the Activity was found to be 0.6.
Compound `CC(=O)O[C@@H]1C2=C(C)[C@@H](OC(=O)[C@H](O)[C@@H](NC(=O)OC(C)(C)C)C3CCCCC3)C[C@@](O)([C@@H](OC(=O)c3ccccc3)[C@H]3[C@@](C)([C@@H](O)CC4OC[C@]43OC(C)=O)[C@H]1O)C2(C)C` (some centres not stated) displayed an Activity of 0.57.
Compound `CC(=O)O[C@@]12COC1C[C@H](O)[C@@]1(C)C(=O)[C@H](O)C3=C(C)[C@@H](OC(=O)C(O)C(O)c4ccccc4)C[C@@](O)([C@@H](OC(=O)c4ccccc4)[C@@H]12)C3(C)C` (some centres not stated) yielded an Activity of 3.
Next, `CC(=O)O[C@@]12COC1C[C@H](O)[C@@]1(C)C(=O)[C@H](O)C3=C(C)[C@@H](OC(=O)[C@@H](NC(=O)c4ccccc4)[C@@H](O)c4ccccc4)C[C@@](O)([C@@H](OC(=O)c4ccccc4)[C@@H]12)C3(C)C` (some centres not stated): 170; `CC(=O)O[C@@]12COC1C[C@H](O)[C@@]1(C)C(=O)[C@H](O)C3=C(C)[C@@H](OC(=O)[C@@H](O)Cc4ccccc4)C[C@@](O)([C@@H](OC(=O)c4ccccc4)[C@@H]12)C3(C)C` (some centres not stated): 3.5.
Next, `CC(=O)O[C@@H]1C2=C(C)[C@@H](OC(=O)[C@H](O)[C@@H](NC(=O)OC(C)C)c3ccccc3)C[C@@](O)([C@@H](OC(=O)c3ccccc3)[C@H]3[C@@](C)([C@@H](O)CC4OC[C@]43OC(C)=O)[C@H]1O)C2(C)C` (some centres not stated): 0.75; `CC(=O)O[C@H]1C(=O)[C@]2(C)[C@@H](O)CC3OC[C@@]3(OC(C)=O)[C@H]2[C@H](OC(=O)c2ccccc2)[C@]2(O)C[C@H](OC(=O)[C@H](O)[C@H](NC(=O)c3ccccc3)c3ccc(O)cc3)C(C)=C1C2(C)C` (some centres not stated): 0.8; `CCCC[C@H](NC(=O)OC(C)(C)C)[C@@H](O)C(=O)O[C@H]1C[C@@]2(O)[C@@H](OC(=O)c3ccccc3)[C@H]3[C@@](C)([C@@H](O)CC4OC[C@]43OC(C)=O)[C@@H](O)[C@H](OC(C)=O)C(=C1C)C2(C)C` (some centres not stated): 9.74.
Next, `CC(=O)O[C@H]1C(=O)[C@]2(C)[C@@H](O)CC3OC[C@@]3(OC(C)=O)[C@H]2[C@H](OC(=O)c2ccccc2)[C@]2(O)C[C@H](OC(=O)[C@H](O)[C@H](NC(=O)c3ccccc3)c3ccc(C)cc3)C(C)=C1C2(C)C` (some centres not stated): 0.8; `CC(=O)O[C@@]12COC1C[C@H](O)[C@@]1(C)C(=O)[C@H](O)C3=C(C)[C@@H](OC(=O)[C@H](O)[C@H](NC(=O)N(C)c4ccc[nH]4)C(C)(C)C)C[C@@](O)([C@@H](OC(=O)c4ccccc4)[C@@H]12)C3(C)C` (some centres not stated): 0.96; `CO[C@H]1CC2OC[C@@]2(OC(C)=O)[C@H]2[C@H](OC(=O)c3ccccc3)[C@]3(O)C[C@H](OC(=O)[C@H](O)[C@@H](NC(=O)OC(C)(C)C)c4ccccc4)C(C)=C([C@@H](OC(C)=O)[C@H](O)[C@]12C)C3(C)C` (some centres not stated): 1.74.
`CC(=O)O[C@H]1C(=O)[C@]2(C)[C@@H](O)CC3OC[C@@]3(OC(C)=O)[C@H]2[C@H](OC(=O)c2ccccc2)[C@]2(O)C[C@H](OC(=O)[C@@H](NC(=O)OC(C)(C)C)[C@@H](O)c3ccccc3)C(C)=C1C2(C)C` (some centres not stated): the Activity turned out to be 108.
In the case of `CC(=O)O[C@H]1C(=O)[C@]2(C)[C@@H](O)CC3OC[C@@]3(OC(C)=O)[C@H]2[C@H](OC(=O)c2ccccc2)[C@]2(O)C[C@H](OC(=O)[C@H](O)[C@H](NC(=O)c3ccc(Cl)cc3)c3ccccc3)C(C)=C1C2(C)C` (some centres not stated), the Activity is 2.4.
Turning to `CC(=O)O[C@H]1C(=O)[C@]2(C)[C@@H](O)CC3OC[C@@]3(OC(C)=O)[C@H]2[C@H](OC(=O)c2ccccc2)[C@]2(O)C[C@H](OC(=O)[C@@H](O)[C@@H](NC(=O)OC(C)(C)C)c3ccccc3)C(C)=C1C2(C)C` (some centres not stated), the Activity is 30.
In turn, `CC(=O)O[C@@H]1C2=C(C)[C@@H](OC(=O)[C@H](O)[C@@H](NC(=O)NC(C)(C)C)c3ccccc3)C[C@@](O)([C@@H](OC(=O)c3ccccc3)[C@H]3[C@@](C)([C@@H](O)CC4OC[C@]43OC(C)=O)[C@H]1O)C2(C)C` (some centres not stated) had an Activity of 1.06.
Take `CC(=O)O[C@H]1C(=O)[C@]2(C)[C@@H](O)CC3OC[C@@]3(OC(C)=O)[C@H]2[C@H](OC(=O)C2CCCCC2)[C@]2(O)C[C@H](OC(=O)[C@H](O)[C@@H](NC(=O)c3ccccc3)c3ccccc3)C(C)=C1C2(C)C` (some centres not stated): the Activity stood at 1.7.
In the case of `CC(=O)O[C@@]12COC1C[C@H](O)[C@@]1(C)C(=O)[C@H](O)C3=C(C)[C@@H](OC(=O)[C@H](O)[C@@H](/C=C/c4ccccc4)NC(=O)OC(C)(C)C)C[C@@](O)([C@@H](OC(=O)c4ccccc4)[C@@H]12)C3(C)C` (some centres not stated), the Activity stood at 1.45.
Compound `CC(=O)O[C@H]1C(=O)[C@]2(C)[C@@H](O)CC3OC[C@@]3(OC(C)=O)[C@H]2[C@H](OC(=O)c2ccccc2)[C@]2(O)C[C@H](OC(=O)[C@H](O)[C@H](NC(=O)C(C)=O)c3ccccc3)C(C)=C1C2(C)C` (some centres not stated) showed an Activity of 3.5.
`COc1ccc([C@@H](NC(=O)c2ccccc2)[C@@H](O)C(=O)O[C@H]2C[C@@]3(O)[C@@H](OC(=O)c4ccccc4)[C@H]4[C@](C)(C(=O)[C@H](OC(C)=O)C(=C2C)C3(C)C)[C@@H](O)CC2OC[C@]24OC(C)=O)cc1` (some centres not stated) gave an Activity of 0.5.
As to `CO[C@H]1[C@H](OC(C)=O)C2=C(C)[C@@H](OC(=O)[C@H](O)[C@@H](NC(=O)c3ccccc3)c3ccccc3)C[C@@](O)([C@@H](OC(=O)c3ccccc3)[C@H]3[C@@]1(C)[C@@H](O)CC1OC[C@]13OC(C)=O)C2(C)C` (some centres not stated), the Activity was found to be 0.35.
In turn, `CC(=O)O[C@H]1C(=O)[C@]2(C)[C@@H](O)CC3OC[C@@]3(OC(C)=O)[C@H]2[C@H](OC(=O)c2ccccc2)[C@]2(O)C[C@H](OC(=O)[C@H](O)[C@H](NC(=O)CC(C)C)c3ccccc3)C(C)=C1C2(C)C` (some centres not stated) had an Activity of 1.9.
Consider `COC(=O)[C@H]1CC2OC[C@@]2(OC(C)=O)[C@H]2[C@H](OC(=O)c3ccccc3)[C@]3(O)C[C@H](OC(=O)[C@H](O)[C@@H](NC(=O)c4ccccc4)c4ccccc4)C(C)=C([C@@H](OC(C)=O)[C@H](C(=O)OC)[C@]12C)C3(C)C` (some centres not stated), for which the Activity worked out at 0.91.
As to `COC(=O)[C@@H](C(=O)O[C@H]1C[C@@]2(O)[C@@H](OC(=O)c3ccccc3)[C@H]3[C@](C)(C(=O)[C@H](O)C(=C1C)C2(C)C)[C@@H](O)CC1OC[C@]13OC(C)=O)[C@H](NC(=O)OC(C)(C)C)c1ccccc1` (some centres not stated), the Activity worked out at 10.
`CC(=O)O[C@H]1C(=O)[C@]2(C)[C@@H](O)CC3OC[C@@]3(OC(C)=O)[C@H]2[C@H](OC(=O)c2ccccc2)[C@]2(O)C[C@H](OC(=O)[C@@H](O)[C@@H](NC(=O)c3ccccc3)c3ccccc3)C(C)=C1C2(C)C` (some centres not stated): the Activity amounted to 4.5.

Values taken from ChEMBL document CHEMBL1130335, “Comparative molecular field analysis of a series of paclitaxel analogues” (J Med Chem, 1997).
